Assay results: US20260234161A1, “RIFABUTIN ANALOGS FOR THE TREATMENT OF BACTERIAL DISEASES” (BIOVERSYS AG, priority 2023, published 2026)
≈ marks a conversion by molar mass, not a printed value. Like-named read-outs stand apart in the source and are kept apart here.

Experiments:
Type in all cases: cell-based
[1] = system: S. aureus (UAMS-1625 strain); test: MIC by broth microdilution, S. aureus; settings: Staphylococcus aureus, 20 h, read-out: MIC S. aureus
Method: (§1) MIC values were determined by broth microdilution method according to the CLSI guidelines with the following exceptions: MIC against A. baumannii was performed in RPMI medium supplemented with 10% FCS and MIC against M. abscessus was performed in Middlebrook 7H9 broth supplemented with Middlebrook ADC growth supplement (10%; see column “M. abscessus 7H9”). MIC forM abscessus was determined a second time in standard cation adjusted Mueller Hinton broth without growth supplement (see colum “M. abscessus MH”). All other MIC were performed in standard cation adjusted Mueller Hinton broth, supplemented with Middlebrook ADC growth supplement (5%) for the slow growing mycobacteria (M. xenopi, M. kansasii and M. avium).
(§2) The following procedure applies to all species tested, except forM xenopi. From a fresh culture plate (from overnight to several days depending on the bacteria), cells were resuspended in 0.9% (w/v) saline solution and bacterial inoculum was prepared in the respective testing medium with 5×10^5 CFU/mL. For M. xenopi, the inoculum was prepared from a fresh liquid culture (7H9+ADC). The appropriate volumes of a 10 mg/mL compound solution were directly dispensed in the 96-well assay plate using a digital dispenser to create two-fold dilution series from 32 to 0.002 μg/mL final concentration for A. baumannii and S. aureus; from 16 to 0.016 μg/mL for M. abscessus and M. avium; and from 1 to 6×10^−5 μg/mL for M. kansasii and M. xenopi. 100 μL of bacterial suspension was finally added to the compounds. Plates were covered and incubated without shaking at 35° C. for 20 hours for A. baumanii and S. aureus; at 30° C. for 4 days for M. abscessus; and at 37° C. for 7 days (at least) for M. kansasii (covered with aluminum foil to avoid light exposure), M. avium and M. xenopi. Every experiment contained an antibiotic as quality control. MIC was determined visually as the lowest concentration of a compound that prevents visible growth of the bacteria.
(§3) The in vitro activity of compounds described herein was determined against S. aureus (UAMS-1625 strain), A. baumannii (HUMC1 strain), M. abscessus (ATCC 19977), M. kansasii (ATCC 12478), M. avium (ATCC 25291), and M. xenopi (ATCC 19250).

[2] = system: M. abscessus (ATCC 19977); test: MIC by broth microdilution, M. abscessus in cation adjusted Mueller Hinton broth; settings: Mycobacteroides abscessus, ATCC19977, 96 h, read-out: MIC M. abscessus MH
Method: as §1, §2, §3

[3] = system: A. baumannii (HUMC1 strain); test: MIC by broth microdilution, A. baumannii (RPMI + 10% FCS); settings: Acinetobacter baumannii, read-out: MIC A. baumannii
Method: as §1, §2, §3

[4] = system: M. abscessus (ATCC 19977); test: MIC by broth microdilution, M. abscessus in Middlebrook 7H9 broth + ADC; settings: Mycobacteroides abscessus, ATCC19977, 96 h; ATCC 19977; Middlebrook 7H9 broth + ADC growth supplement (10%); 30° C., 4 days; read-out: MIC M. abscessus 7H9
Method: as §1, §2, §3

[5] = ATCC 19977, cation adjusted Mueller Hinton broth without growth supplement, 30° C., 4 days
[6] = HUMC1 strain, RPMI medium + 10% FCS, 35° C., 20 hours

Row | SMILES | MIC [1] [µg/mL] | MIC [2, 5] [µg/mL] | MIC [3, 6] [µg/mL] | MIC [4] [µg/mL] | MIC [2] [µg/mL] | MIC ([3]; 20 h) [µg/mL]
1 | CO[C@H]1/C=C/O[C@@]2(C)Oc3c(C)c(O)c4c(c3C2=O)C2=NC3(CCN(CC(C)C)CC3)NC2=C(NC(=O)/C(C)=C\C=C\[C@H](C)[C@H](O)[C@@H](C)[C@@H](O)[C@@H](C)[C@H](OC(=O)N2CCC(N(C)C)CC2)[C@@H]1C)C4=O [Compound 3] | 0.03 (≈ 0.0313 µM) | 4 (≈ 4.17 µM) | ≤ 0.002 | 0.5 | – | –
2 | CO[C@H]1/C=C/O[C@@]2(C)Oc3c(C)c(O)c4c(c3C2=O)C2=NC3(CCN(CC(C)C)CC3)NC2=C(NC(=O)/C(C)=C\C=C\[C@H](C)[C@H](O)[C@@H](C)[C@@H](O)[C@@H](C)[C@H](OC(=O)N2CCC(Nc3cccnc3)CC2)[C@@H]1C)C4=O [Compound 5] | 0.125 (≈ 0.124 µM) | 4 (≈ 3.97 µM) | 0.004 | 1 | – | –
3 | CO[C@H]1/C=C/O[C@@]2(C)Oc3c(C)c(O)c4c(c3C2=O)C2=NC3(CCN(CC(C)C)CC3)NC2=C(NC(=O)/C(C)=C\C=C\[C@H](C)[C@H](O)[C@@H](C)[C@@H](O)[C@@H](C)[C@H](OC(=O)N2CCN(C)CC2)[C@@H]1C)C4=O [Compound 6] | 0.06 (≈ 0.0644 µM) | 4 (≈ 4.3 µM) | 0.06 | 1 | – | –
4 | CO[C@H]1/C=C/O[C@@]2(C)Oc3c(C)c(O)c4c(c3C2=O)C2=NC3(CCN(CC(C)C)CC3)NC2=C(NC(=O)/C(C)=C\C=C\[C@H](C)[C@H](O)[C@@H](C)[C@@H](O)[C@@H](C)[C@H](OC(=O)N2CCN(C3CCN(C)CC3)CC2)[C@@H]1C)C4=O [Compound 11] | 0.125 (≈ 0.123 µM) | 4 (≈ 3.94 µM) | ≤ 0.002 | 0.5 | – | –
5 | CO[C@H]1/C=C/O[C@@]2(C)Oc3c(C)c(O)c4c(c3C2=O)C2=NC3(CCN(CC(C)C)CC3)NC2=C(NC(=O)/C(C)=C\C=C\[C@H](C)[C@H](O)[C@@H](C)[C@@H](O)[C@@H](C)[C@H](OC(=O)N2CCN(CCN3CCCCC3)CC2)[C@@H]1C)C4=O [Compound 12] | 0.125 (≈ 0.122 µM) | 1 (≈ 0.972 µM) | ≤ 0.002 | 0.5 | – | –
6 | CO[C@H]1/C=C/O[C@@]2(C)Oc3c(C)c(O)c4c(c3C2=O)C2=NC3(CCN(CC(C)C)CC3)NC2=C(NC(=O)/C(C)=C\C=C\[C@H](C)[C@H](O)[C@@H](C)[C@@H](O)[C@@H](C)[C@H](OC(=O)N2CCCN(C3CCCC3)CC2)[C@@H]1C)C4=O [Compound 60] | 0.06 (≈ 0.06 µM) | 0.25 (≈ 0.25 µM) | ≤ 0.016 | – | – | –
7 | CO[C@H]1/C=C/O[C@@]2(C)Oc3c(C)c(O)c4c(c3C2=O)C2=NC3(CCN(CC(C)C)CC3)NC2=C(NC(=O)/C(C)=C\C=C\[C@H](C)[C@H](O)[C@@H](C)[C@@H](O)[C@@H](C)[C@H](OC(=O)N2CCC(n3ccnc3)CC2)[C@@H]1C)C4=O [Compound 61] | 0.03 (≈ 0.0305 µM) | 4 (≈ 4.07 µM) | ≤ 0.016 | – | – | –
8 | CO[C@H]1/C=C/O[C@@]2(C)Oc3c(C)c(O)c4c(c3C2=O)C2=NC3(CCN(CC(C)C)CC3)NC2=C(NC(=O)/C(C)=C\C=C\[C@H](C)[C@H](O)[C@@H](C)[C@@H](O)[C@@H](C)[C@H](OC(=O)N2CCC(N3CCCC3)CC2)[C@@H]1C)C4=O [Compound 62] | 0.06 (≈ 0.0609 µM) | 1 (≈ 1.01 µM) | ≤ 0.016 | – | – | –
9 | CO[C@H]1/C=C/O[C@@]2(C)Oc3c(C)c(O)c4c(c3C2=O)C2=NC3(CCN(CC(C)C)CC3)NC2=C(NC(=O)/C(C)=C\C=C\[C@H](C)[C@H](O)[C@@H](C)[C@@H](O)[C@@H](C)[C@H](OC(=O)N2CCC3CCCCC3C2)[C@@H]1C)C4=O (some centres unmarked) [Compound 64] | 1 (≈ 1.03 µM) | 4 (≈ 4.12 µM) | 0.5 | – | – | –
10 | CO[C@H]1/C=C/O[C@@]2(C)Oc3c(C)c(O)c4c(c3C2=O)C2=NC3(CCN(CC(C)C)CC3)NC2=C(NC(=O)/C(C)=C\C=C\[C@H](C)[C@H](O)[C@@H](C)[C@@H](O)[C@@H](C)[C@H](OC(=O)N2CCCC3(CN(CC5CCCCC5)C3)C2)[C@@H]1C)C4=O [Compound 65] | 0.5 (≈ 0.475 µM) | 0.125 (≈ 0.119 µM) | 0.004 | – | – | –
11 | CO[C@H]1/C=C/O[C@@]2(C)Oc3c(C)c(O)c4c(c3C2=O)C2=NC3(CCN(CC(C)C)CC3)NC2=C(NC(=O)/C(C)=C\C=C\[C@H](C)[C@H](O)[C@@H](C)[C@@H](O)[C@@H](C)[C@H](OC(=O)N2CC3(CCN(CC5CCCCC5)CC3)C2)[C@@H]1C)C4=O [Compound 66] | 0.125 (≈ 0.119 µM) | 0.125 (≈ 0.119 µM) | 0.004 | – | – | –
12 | CCN1CCC2(CC1)CCN(C(=O)O[C@H]1[C@H](C)[C@H](O)[C@H](C)[C@@H](O)[C@@H](C)/C=C/C=C(/C)C(=O)NC3=C4NC5(CCN(CC(C)C)CC5)N=C4c4c(c(O)c(C)c5c4C(=O)[C@@](C)(O/C=C/[C@H](OC)[C@H]1C)O5)C3=O)CC2 [Compound 68] | 0.06 (≈ 0.0592 µM) | 1 (≈ 0.987 µM) | 0.003 | – | – | –
13 | CO[C@H]1/C=C/O[C@@]2(C)Oc3c(C)c(O)c4c(c3C2=O)C2=NC3(CCN(CC(C)C)CC3)NC2=C(NC(=O)/C(C)=C\C=C\[C@H](C)[C@H](O)[C@@H](C)[C@@H](O)[C@@H](C)[C@H](OC(=O)N2CCC3(CC2)CCN(C(C)C)CC3)[C@@H]1C)C4=O [Compound 69] | 0.125 (≈ 0.122 µM) | 1 (≈ 0.973 µM) | 0.002 | – | – | –
14 | CO[C@H]1/C=C/O[C@@]2(C)Oc3c(C)c(O)c4c(c3C2=O)C2=NC3(CCN(CC(C)C)CC3)NC2=C(NC(=O)/C(C)=C\C=C\[C@H](C)[C@H](O)[C@@H](C)[C@@H](O)[C@@H](C)[C@H](OC(=O)N2CCC3(CCN(CC(C)C)CC3)CC2)[C@@H]1C)C4=O [Compound 70] | 0.125 (≈ 0.12 µM) | 0.25 (≈ 0.24 µM) | 0.004 | – | – | –
15 | CO[C@H]1/C=C/O[C@@]2(C)Oc3c(C)c(O)c4c(c3C2=O)C2=NC3(CCN(CC(C)C)CC3)NC2=C(NC(=O)/C(C)=C\C=C\[C@H](C)[C@H](O)[C@@H](C)[C@@H](O)[C@@H](C)[C@H](OC(=O)N2CCC3(CCN(CCC(C)C)CC3)CC2)[C@@H]1C)C4=O [Compound 71] | 0.25 (≈ 0.237 µM) | 0.25 (≈ 0.237 µM) | 0.008 | – | – | –
16 | CO[C@H]1/C=C/O[C@@]2(C)Oc3c(C)c(O)c4c(c3C2=O)C2=NC3(CCN(CC(C)C)CC3)NC2=C(NC(=O)/C(C)=C\C=C\[C@H](C)[C@H](O)[C@@H](C)[C@@H](O)[C@@H](C)[C@H](OC(=O)NC2CCN(C)CC2)[C@@H]1C)C4=O [Compound 73] | 0.03 (≈ 0.0317 µM) | – | – | – | 1 (≈ 1.06 µM) | 0.001
17 | CCN1CCC(NC(=O)O[C@H]2[C@H](C)[C@H](O)[C@H](C)[C@@H](O)[C@@H](C)/C=C/C=C(/C)C(=O)NC3=C4NC5(CCN(CC(C)C)CC5)N=C4c4c(c(O)c(C)c5c4C(=O)[C@@](C)(O/C=C/[C@H](OC)[C@H]2C)O5)C3=O)CC1 [Compound 74] | 0.03 (≈ 0.0313 µM) | 2 (≈ 2.09 µM) | ≤ 0.001 | – | – | –
18 | CCCN1CCC(NC(=O)O[C@H]2[C@H](C)[C@H](O)[C@H](C)[C@@H](O)[C@@H](C)/C=C/C=C(/C)C(=O)NC3=C4NC5(CCN(CC(C)C)CC5)N=C4c4c(c(O)c(C)c5c4C(=O)[C@@](C)(O/C=C/[C@H](OC)[C@H]2C)O5)C3=O)CC1 [Compound 75] | 0.06 (≈ 0.0617 µM) | 1 (≈ 1.03 µM) | 0.001 | – | – | –
19 | CO[C@H]1/C=C/O[C@@]2(C)Oc3c(C)c(O)c4c(c3C2=O)C2=NC3(CCN(CC(C)C)CC3)NC2=C(NC(=O)/C(C)=C\C=C\[C@H](C)[C@H](O)[C@@H](C)[C@@H](O)[C@@H](C)[C@H](OC(=O)NC2CCN(C(C)C)CC2)[C@@H]1C)C4=O [Compound 76] | 0.03 (≈ 0.0308 µM) | 2 (≈ 2.06 µM) | ≤ 0.001 | – | – | –
20 | CO[C@H]1/C=C/O[C@@]2(C)Oc3c(C)c(O)c4c(c3C2=O)C2=NC3(CCN(CC(C)C)CC3)NC2=C(NC(=O)/C(C)=C\C=C\[C@H](C)[C@H](O)[C@@H](C)[C@@H](O)[C@@H](C)[C@H](OC(=O)NC2CCN(C3CCOCC3)CC2)[C@@H]1C)C4=O [Compound 78] | 0.06 (≈ 0.0591 µM) | – | – | – | 2 (≈ 1.97 µM) | ≤ 0.001
21 | CO[C@H]1/C=C/O[C@@]2(C)Oc3c(C)c(O)c4c(c3C2=O)C2=NC3(CCN(CC(C)C)CC3)NC2=C(NC(=O)/C(C)=C\C=C\[C@H](C)[C@H](O)[C@@H](C)[C@@H](O)[C@@H](C)[C@H](OC(=O)N(C)C2CC2)[C@@H]1C)C4=O [Compound 82] | 0.06 (≈ 0.0665 µM) | 4 (≈ 4.43 µM) | 0.008 | – | – | –
22 | CO[C@H]1/C=C/O[C@@]2(C)Oc3c(C)c(O)c4c(c3C2=O)C2=NC3(CCN(CC(C)C)CC3)NC2=C(NC(=O)/C(C)=C\C=C\[C@H](C)[C@H](O)[C@@H](C)[C@@H](O)[C@@H](C)[C@H](OC(=O)N(C)C(C)C)[C@@H]1C)C4=O [Compound 83] | 0.125 (≈ 0.138 µM) | 2 (≈ 2.21 µM) | 0.016 | – | – | –
